# Columns and labels:
# Factor Xa [1] = test: anti-Factor Xa activity, chromogenic substrate assay; format: biochemical
# [2] = in vivo pharmacokinetics after subcutaneous injection in rats; conditions: rat
# Experimental: Both Fondaparinux and the phenyl-linked heparin hexasaccharide dimer I-1-1 were injected subcutaneously into Wister male rats weighing 200±20 g (n≥3) at a dose of 300 IU/kg. Blood samples were collected from the jugular vein of rats at 0, 0.5, 0.75, 1, 1.25, 1.5, 1.75, 2, 2.5, 3, 4, 8, 12 and 24 hours respectively (based on the actual blood collection time). After the blood samples were centrifuged at 5000 r/min for 15 minutes, the supernatant was taken to determine the anti-Factor Xa activity by the above method, and the residual concentrations of Fondaparinux and the phenyl-linked heparin hexasaccharide dimer I-1-1 in rats were calculated. The drug concentration vs. time curve was drawn.
# Factor Xa [3] = test: anti-Factor Xa titer against low molecular weight heparin standard curve, chromogenic substrate method; format: biochemical
# Factor II a = test: anti-Factor IIa activity, chromogenic substrate method; format: biochemical; conditions: data not shown
# Factor Xa [4] = test: neutralization of anti-Factor Xa activity by protamine sulfate, chromogenic substrate method; format: biochemical; conditions: different concentrations of protamine sulfate
# From the text: Therefore, the phenyl-linked heparin hexasaccharide dimer I-1-1 prepared by the present disclosure is a novel heparin analog whose anticoagulant activity may be neutralized by protamine sulfate.
IC50 value of the anti-Factor Xa activity (Factor Xa [1]; mass concentration),IC50 (Factor Xa [1]; molar concentration),"t1/2 ([2]; male, Wister, in vivo, sc)","half-life ([2]; male, Wister, plasma, sc, 300 IU/kg)",SMILES,in vivo half-life (comparison in words) ([2]; in vivo),titer (Factor Xa [3]),anti-Factor IIa activity (Factor II a),neutralization of in vitro anti-Factor Xa activity by protamine sulfate (Factor Xa [4])
0.02815 µg/mL,7.2 nM,2.269 h,,O=C(O)C1OC(OC2C(COS(=O)(=O)O)OC(OC3C(C(=O)O)OC(OC4C(COS(=O)(=O)O)OC(OC5C(C(=O)O)OC(Oc6ccc(OC7OC(C(=O)O)C(OC8OC(COS(=O)(=O)O)C(OC9OC(C(=O)O)C(OC%10OC(COS(=O)(=O)O)C(OC%11OC(C(=O)O)C(OC%12OC(COS(=O)(=O)O)C(O)C(O)C%12NS(=O)(=O)O)C(O)C%11O)C(OS(=O)(=O)O)C%10NS(=O)(=O)O)C(O)C9OS(=O)(=O)O)C(O)C8NS(=O)(=O)O)C(O)C7O)cc6)C(O)C5O)C(NS(=O)(=O)O)C4O)C(OS(=O)(=O)O)C3O)C(NS(=O)(=O)O)C2OS(=O)(=O)O)C(O)C(O)C1OC1OC(COS(=O)(=O)O)C(O)C(O)C1NS(=O)(=O)O (centres unmarked) [Compound I-1-1],comparable to that of commercially available Fondaparinux,"1,121.5 IU/mg",no significant anti-Factor Ha activity,almost completely reversed
,,,2.17 h,"CO[C@H]1O[C@H](COS(=O)(=O)O)[C@@H](O[C@@H]2O[C@@H](C(=O)O)[C@@H](O[C@H]3O[C@H](COS(=O)(=O)O)[C@@H](O[C@@H]4O[C@H](C(=O)O)[C@@H](O[C@H]5O[C@H](COS(=O)(=O)O)[C@@H](O)[C@H](O)[C@H]5NS(=O)(=O)O)[C@H](O)[C@H]4O)[C@H](OS(=O)(=O)O)[C@H]3NS(=O)(=O)O)[C@H](O)[C@H]2OS(=O)(=O)O)[C@H](O)[C@H]1NS(=O)(=O)O [Fondaparinux, reference compound]",,,,

# From patent US20260176269A1, “ANTICOAGULANT HEPARIN OLIGOSACCHARIDE PHENYL-LINKED DIMER, PREPARATION METHOD THEREFOR AND USE THEREOF” (SHANDONG UNIVERSTIY, priority 2022, published 2026)
